The source of these data is US20230399312A1, “SUBSTITUTED PYRIMIDINES AND METHODS OF USE” (THERAVANCE BIOPHARMA R&D IP, LLC, priority 2020, published 2023).

Experiment [1] has as its target T1, recombinant human ALK5 (TGF-βR1) protein (Homo sapiens, UniProt P36897).
T1 construct: purchased Life Technologies PR9075A
T1 sequence (P36897 34-503): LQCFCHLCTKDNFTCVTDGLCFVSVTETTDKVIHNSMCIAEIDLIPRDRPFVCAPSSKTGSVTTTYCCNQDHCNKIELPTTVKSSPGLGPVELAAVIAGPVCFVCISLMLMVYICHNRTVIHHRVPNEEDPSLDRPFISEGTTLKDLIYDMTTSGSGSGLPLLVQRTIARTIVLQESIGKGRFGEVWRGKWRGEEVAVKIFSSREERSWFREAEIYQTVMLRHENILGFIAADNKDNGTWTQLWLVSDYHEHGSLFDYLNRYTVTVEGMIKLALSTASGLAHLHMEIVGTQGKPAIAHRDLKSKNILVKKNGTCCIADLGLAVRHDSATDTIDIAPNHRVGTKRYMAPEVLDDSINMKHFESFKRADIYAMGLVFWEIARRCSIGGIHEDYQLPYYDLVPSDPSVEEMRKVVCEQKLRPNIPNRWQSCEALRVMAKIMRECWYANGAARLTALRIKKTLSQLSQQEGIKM
The experiment is described as follows: Biochemical ALK5 (TGF-βR1) assay to measure pKi (LANCE Ultra ULight kinase assay). As to conditions: apparent pKi, converted from pIC50 by Cheng-Prusoff. Here is the method: The assays were performed in a 384-well plate (24 columns×16 wells/rows). An Echo®550 Liquid Handler (Labcyte) was used to prepare various intermediate concentrations of compounds of the present disclosure in 100% DMSO. From the intermediate concentrations, a range of concentrations (from […] to 25 μM corresponding to volumes up to 105 nL) were prepared and ejected into a final assay plate to be used to create individual dose response curves for each of the subject compounds. To a separate column within the assay plate, 105 nL of DMSO in each well was used to establish a maximum assay signal. Additionally, 105 nL of 100 μM SD-208, a selective TGF-βR1 inhibitor (Catalog #S7624, Selleck Chemicals), was used in another column of wells to establish a minimal assay signal.
With a multidrop dispenser, 8 μL of enzyme mixture (1.25× final) was added to each well. […] The plate was then sealed with an adhesive seal and allowed to equilibrate for 60 minutes at room temperature.
Next, 2 μL of 125 μM ATP (5×final, 125 μM ATP prepared in assay buffer with 2 mM DTT) was added to the incubated mixtures, covered with a MicroClime® Environmental Lid (Product No. LLS-0310, Labcyte) and immediately transferred to 37° C. The reactions were allowed to proceed at 37° C. for 60 minutes before terminating with the addition of 10 μL of detection antibody (LANCE® (lanthanide chelate excite) Ultra Europium-anti-phospo-DNA Topoisomerase 2-alpha (Thr1342)) in detection mixture (12 mM EDTA, 4 nM detection antibody prepared in detection buffer (50 mM Tris-HCl, 150 mM NaCl, 0.5% BSA (Fraction V), pH 7.0)) at room temperature. The plate was then read on a Perkin Elmer EnVision Plate Reader using europium specific reader settings with excitation and emission wavelengths set to 320 or 340 nm and 665 nm, respectively.
For dose-response analyses, percent inhibition versus compound concentrations were plotted, and pIC50 values were determined from a 4-parameter robust fit model with GraphPad Prism V5 Software (GraphPad Software, Inc., La Jolla, CA). This model obtains pIC50 values by fitting the sigmoidal dose-response (variable slope) equation to the data. Results were expressed as pIC50 (negative logarithm of IC50) and subsequently converted to pKi (negative logarithm of dissociate constant, Ki) using the Cheng-Prusoff equation. The higher the value of pKi (lower value of Ki), the greater the inhibition of ALK5 activity.
Background: Time-resolved FRET reads energy transfer from a long-lived donor to a nearby acceptor.

For experiment [2], the system named is TGF-β-stimulated SMAD3 phosphorylation in BEAS-2B cells. Kind of experiment: Cellular ALK5 potency assay, inhibition of TGF-β stimulated pSMAD3 formation in BEAS-2B cells. In kind it is cell-based. As to conditions: Homo sapiens, pSMAD3, TGF-β 10 ng/mL, read-out: BEAS2B pIC50 (converted). How it is done:
The potency of compounds of the present disclosure for inhibition of TGF-β-stimulated SMAD3 phosphorylation was measured in BEAS-2B cells, a human lung epithelial cell line. TGF-β signals through activin receptor-like kinase 5 (ALK5) immediately prior to SMAD3 phosphorylation.
BEAS-2B cells were grown using 50% DMEM (Life Technologies) and 50% F-12 (Life Technologies) media, supplemented with 10% Fetal Bovine Serum (ATCC), 25 mM HEPES (Life Technologies), and 1×Pen-Strep (Life Technologies). Cells were cultured in a humidified incubator set at 37° C., 5% CO2, and trypsonized using 0.25% Trypsin with 0.5% polyvinylpyrrolidone (PVP).
For the assay, BEAS-2B cells were seeded at 7,500 cells/well (25 μL/well) in a 384-well plate and cultured overnight. Before dosing, growth media was aspirated and the wells were rinsed with HBSS Buffer (HBSS with Calcium and Magnesium, Life Technologies) supplemented with 25 mM HEPES (Life Technologies) and 1% Bovine Serum Albumin (Roche). Compounds were serially diluted in DMSO, then further diluted with supplemented HBSS Buffer (50 μL/well) to create a compound plate 3× of the final assay concentration, at 0.3% DMSO. The diluted compounds were then added to the cells (8 μL/well) and incubated at 37° C., 5% CO2 for 1 hour. After the compound incubation, TGF-β (R&D Systems) reconstituted in supplemented HBSS Buffer was added to the cells ([…], final concentration 10 ng/mL) and incubated for a further 30 minutes, after which the cells were immediately lysed with AlphaLISA lysis buffer (PerkinElmer). AlphaLISA Acceptor and Detector beads (PerkinElmer) were added 2 hours apart, then incubated overnight to be read the next day. The potency of the compound was determined through analysis of dose-dependent quantified changes in pSMAD3 signal from baseline (non-compound treated TGF-β stimulated cells). Data are expressed as pIC50 (negative decadic logarithm IC50) values.

The structures appear in SMILES notation. pKi: −log10 of the molar value. A value given as a limit tells only on which side of the number the result lay.

Broadly, the pKi is the Ki on a negative log10 scale, so that one unit is a factor of ten. For the molecule `Cc1ccc(O)cc1-c1nccc(Nc2ccnc(Nc3ccc(N4CCC(N(C)C)CC4)cc3)n2)n1` [Compound 16, 3-[4-[[2-[4-[4-(dimethylamino)-1-piperidyl]anilino]pyrimidin-4-yl]amino]pyrimidin-2-yl]-4-methyl-phenol], the negative logarithm of the Ki (pKi) in experiment [1] was 8.50 to 9.40. Moreover, the IC50 in experiment [2] was 25.1 to 158 nM.

For the molecule `Cc1cccc(-c2nccc(Nc3ccnc(Nc4ccc(CN5CCC(C(=O)OC6CNC6)CC5)cc4)n3)n2)n1` [Compound 17, azetidin-3-yl 1-[[4-[[4-[[2-(6-methyl-2-pyridyl)pyrimidin-4-yl]amino]pyrimidin-2-yl]amino]phenyl]methyl] piperidine-4-carboxylate], the pKi in experiment [1] is 9.50 to 10.40. Moreover, the IC50 in experiment [2] was 25.1 to 158 nM.

Consider `COc1cc(Nc2nccc(Nc3ccnc(-c4cccc(C)n4)n3)n2)ccc1NS(C)(=O)=O` [Compound 18, N-[2-methoxy-4-[[4-[[2-(6-methyl-2-pyridyl)pyrimidin-4-yl]amino]pyrimidin-2-yl]amino]phenyl] methanesulfonamide], for which the negative logarithm of the Ki (pKi) in experiment [1] was 8.50 to 9.40. Moreover, in experiment [2], the IC50 was 25.1 to 158 nM.

As to `Fc1cc(F)c(-c2nccc(Nc3ccnc(Nc4ccc(N5CCOCC5)cc4)n3)n2)cc1Cl` [Compound 19, N4-[2-(5-chloro-2,4-difluoro-phenyl)pyrimidin-4-yl]-N2-(4-morpholinophenyl)pyrimidine-2,4-diamine], the pKi in experiment [1] is 7.50 to 8.40. In addition, in experiment [2], the IC50 was 25.1 to 158 nM.

Take `COc1ncc(Nc2nccc(Nc3ccnc(-c4cccc(C)n4)n3)n2)cc1NS(C)(=O)=O` [Compound 20, N-[2-methoxy-5-[[4-[[2-(6-methyl-2-pyridyl)pyrimidin-4-yl]amino]pyrimidin-2-yl]amino]-3-pyridyl]methanesulfonamide]: the pKi in experiment [1] was 8.50 to 9.40. Further, in experiment [2], the IC50 is no more than 20 nM.

Turning to `Cc1cccc(-c2nccc(Nc3ccnc(Nc4ccc(S(=O)(=O)N5CCNCC5)cc4)n3)n2)n1` [Compound 21, N4-[2-(6-methyl-2-pyridyl)pyrimidin-4-yl]-N2-(4-piperazin-1-ylsulfonylphenyl)pyrimidine-2,4-diamine], the pKi in experiment [1] is 9.50 to 10.40. Further, the IC50 in experiment [2] is 25.1 to 158 nM.

Take `Cc1cccc(-c2nccc(Nc3ccnc(Nc4ccc(CN5CC(C(=O)OC6CCNCC6)C5)cc4)n3)n2)n1` [Compound 22, 4-piperidyl 1-[[4-[[4-[[2-(6-methyl-2-pyridyl)pyrimidin-4-yl]amino]pyrimidin-2-yl]amino]phenyl]methyl] azetidine-3-carboxylate]: in experiment [1], the pKi was 9.50 to 10.40. Besides, the IC50 in experiment [2] is 25.1 to 158 nM.

On to `Cc1cccc(-c2nccc(Nc3ccnc(Nc4ccc(CN5CCN(Cc6ccccc6)CC5)cc4)n3)n2)n1` [Compound 23, N2-[4-[(4-benzylpiperazin-1-yl)methyl]phenyl]-N4-[2-(6-methyl-2-pyridyl)pyrimidin-4-yl]pyrimidine-2,4-diamine], for which the negative logarithm of the Ki (pKi) in experiment [1] is 9.50 to 10.40. In addition, the IC50 in experiment [2] was 25.1 to 158 nM.

In the case of `Cc1cccc(-c2nccc(Nc3ccnc(Nc4ccc(CN(C)C)cc4)n3)n2)n1` [Compound 24, N2-[4-[(dimethylamino)methyl]phenyl]-N4-[2-(6-methyl-2-pyridyl)pyrimidin-4-yl]pyrimidine-2,4-diamine], the negative logarithm of the Ki (pKi) in experiment [1] is no less than 10.50. The IC50 in experiment [2] was 25.1 to 158 nM.

For the molecule `COC(=O)C1CNCCN1Cc1ccc(Nc2nccc(Nc3ccnc(-c4cccc(C)n4)n3)n2)cc1` (stereo not shown) [Compound 25, methyl 1-[[4-[[4-[[2-(6-methyl-2-pyridyl)pyrimidin-4-yl]amino]pyrimidin-2-yl]amino]phenyl]methyl] piperazine-2-carboxylate], in experiment [1], the pKi is 9.50 to 10.40. Moreover, the IC50 in experiment [2] is 25.1 to 158 nM.

For `Cc1cccc(-c2nccc(Nc3ccnc(Nc4ccc(N5CCN(Cc6ccccc6)CC5)cc4)n3)n2)n1` [Compound 27, N2-[4-(4-benzylpiperazin-1-yl)phenyl]-N4-[2-(6-methyl-2-pyridyl)pyrimidin-4-yl]pyrimidine-2,4-diamine], in experiment [1], the negative-log Ki (pKi) is 9.50 to 10.40. For the same molecule, the IC50 in experiment [2] is 25.1 to 158 nM.

For the molecule `COC(=O)C1CCN(Cc2ccc(Nc3nccc(Nc4ccnc(-c5cccc(C)n5)n4)n3)cc2)CC1` [Compound 28, methyl 1-[[4-[[4-[[2-(6-methyl-2-pyridyl)pyrimidin-4-yl]amino]pyrimidin-2-yl]amino]phenyl]methyl] piperidine-4-carboxylate], the pKi in experiment [1] was 9.50 to 10.40. Further, the IC50 in experiment [2] is no more than 20 nM.

For `Cc1cccc(-c2nccc(Nc3ccnc(Nc4ccc(CN5CCCC(C(=O)OC6CCN(C)C6)C5)cc4)n3)n2)n1` (stereo not shown) [Compound 29, (1-methylpyrrolidin-3-yl) 1-[[4-[[4-[[2-(6-methyl-2-pyridyl)pyrimidin-4-yl]amino]pyrimidin-2-yl]amino]phenyl]methyl] piperidine-3-carboxylate], in experiment [1], the negative-log Ki (pKi) is no less than 10.50. In addition, the IC50 in experiment [2] is no more than 20 nM.

With `Cc1cccc(-c2nccc(Nc3ccnc(Nc4ncc(C(=O)N5CCNCC5)s4)n3)n2)n1` [Compound 30, [2-[[4-[[2-(6-methyl-2-pyridyl)pyrimidin-4-yl]amino]pyrimidin-2-yl]amino]thiazol-5-yl]-piperazin-1-yl-methanone], in experiment [1], the pKi was 7.50 to 8.40. In experiment [2], the IC50 was 200 to 1260 nM.

As to `Cc1cccc(-c2nccc(Nc3ccnc(Nc4ccc(N5CCNCC5CC(=O)O)cc4)n3)n2)n1` (stereo not shown) [Compound 31, 2-[1-[4-[[4-[[2-(6-methyl-2-pyridyl)pyrimidin-4-yl]amino]pyrimidin-2-yl]amino]phenyl]piperazin-2-yl]acetic acid], the pKi in experiment [1] is 9.50 to 10.40. Moreover, in experiment [2], the IC50 was 200 to 1260 nM.

With `Cc1cccc(-c2nccc(Nc3ccnc(Nc4ccc(CN5C[C@@H](C)NC[C@H]5C)cc4)n3)n2)n1` [Compound 32, N2-[4-[[(2R,5R)-2,5-dimethylpiperazin-1-yl]methyl]phenyl]-N4-[2-(6-methyl-2-pyridyl)pyrimidin-4-yl]pyrimidine-2,4-diamine], the negative-log Ki (pKi) in experiment [1] was 9.50 to 10.40. Further, the IC50 in experiment [2] is 25.1 to 158 nM.

With `Cc1cccc(-c2nccc(Nc3ccnc(Nc4ccc(C(=O)OCC5CNC5)cc4)n3)n2)n1` [Compound 33, azetidin-3-ylmethyl 4-((4-((2-(6-methylpyridin-2-yl)pyrimidin-4-yl)amino)pyrimidin-2-yl)amino)benzoate], the negative logarithm of the Ki (pKi) in experiment [1] was 9.50 to 10.40. Moreover, in experiment [2], the IC50 is 25.1 to 158 nM.
